Experimental data taken from the supplement of paper PMC10307832.

Tests used:
Experiment in all cases: relative viability (nuclei count vs DMSO), 5 days (fraction); higher = more cells survive
GW-2580 + AZD7762 = compound: COC1=CC=C(C=C1)COC2=C(C=C(C=C2)CC3=CN=C(N=C3N)N)OC [GW-2580] + NC(=O)Nc1cc(-c2cccc(F)c2)sc1C(=O)N[C@H]1CCCNC1 [AZD7762] (partner 0.2 µM)
In short: (§1)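 Dosing by pin tool came one day after lung cancer cell lines were seeded in 1536-well plates, using either one drug or a fixed anchor-drug dose plus five library-drug doses (not always all listed) in √10 steps. After 5 days, nuclei were counted on 4× images. Relative viability is treated-well nuclei count divided by vehicle-well nuclei count, and values are medians of duplicate plates.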

Fedratinib + Phenformin = compound: Cc1cnc(Nc2ccc(OCCN3CCCC3)cc2)nc1Nc1cccc(S(=O)(=O)NC(C)(C)C)c1 [Fedratinib] + N=C(N)NC(=N)NCCc1ccccc1 [Phenformin] (partner 250 µM)
In short: as §1

Fedratinib + Olaparib = compound: Cc1cnc(Nc2ccc(OCCN3CCCC3)cc2)nc1Nc1cccc(S(=O)(=O)NC(C)(C)C)c1 [Fedratinib] + O=C(c1cc(Cc2n[nH]c(=O)c3ccccc23)ccc1F)N1CCN(C(=O)C2CC2)CC1 [Olaparib] (partner 8 µM)
In short: as §1

GW-2580 + Trametinib = compound: COC1=CC=C(C=C1)COC2=C(C=C(C=C2)CC3=CN=C(N=C3N)N)OC [GW-2580] + CC(=O)Nc1cccc(-n2c(=O)n(C3CC3)c(=O)c3c(Nc4ccc(I)cc4F)n(C)c(=O)c(C)c32)c1 [Trametinib] (partner 0.02 µM)
In short: as §1

GW-2580 + Luminespib = compound: COC1=CC=C(C=C1)COC2=C(C=C(C=C2)CC3=CN=C(N=C3N)N)OC [GW-2580] + CCNC(=O)c1noc(-c2cc(C(C)C)c(O)cc2O)c1-c1ccc(CN2CCOCC2)cc1 [Luminespib] (partner 0.01 µM)
In short: as §1

Cell Line | relative viability (GW-2580 + AZD7762; first compound 0.08 µM) | relative viability (GW-2580 + AZD7762; first compound 0.8 µM) | relative viability (GW-2580 + AZD7762; first compound 2.53 µM) | relative viability (GW-2580 + AZD7762; first compound 8 µM) | relative viability (Fedratinib + Phenformin; first compound 0.1 µM) | relative viability (Fedratinib + Phenformin; first compound 0.3162 µM) | relative viability (Fedratinib + Phenformin; first compound 1 µM) | relative viability (Fedratinib + Olaparib; first compound 0.1 µM) | relative viability (Fedratinib + Olaparib; first compound 0.3162 µM) | relative viability (Fedratinib + Olaparib; first compound 1 µM) | relative viability (GW-2580 + Trametinib; first compound 0.08 µM) | relative viability (GW-2580 + Trametinib; first compound 0.8 µM) | relative viability (GW-2580 + Trametinib; first compound 2.53 µM) | relative viability (GW-2580 + Trametinib; first compound 8 µM) | relative viability (GW-2580 + Luminespib; first compound 0.08 µM) | relative viability (GW-2580 + Luminespib; first compound 0.8 µM) | relative viability (GW-2580 + Luminespib; first compound 2.53 µM) | relative viability (GW-2580 + Luminespib; first compound 8 µM)
201T | 0.575 | 0.579 | 0.583 | 0.627 | 0.429 | 0.478 | 0.414 | 0.846 | 0.867 | 0.794 | 0.76 | 0.753 | 0.754 | 0.748 | 1.04 | 1.04 | 1.08 | 0.988
A549 | – | – | – | – | – | 0.169 | 0.165 | 0.391 | 0.269 | 0.354 | – | – | – | – | – | – | – | –
A-427 | 0.753 | 0.668 | 0.568 | 0.627 | 0.26 | 0.298 | 0.147 | 0.648 | 0.708 | 0.716 | 0.785 | 0.675 | 0.648 | 0.704 | 1.1 | 0.83 | 0.927 | 0.798
ABC-1 | 0.836 | 0.941 | 0.717 | 0.829 | 0.265 | 0.23 | 0.209 | 0.657 | 0.984 | 0.822 | – | – | – | – | 0.637 | 0.505 | 0.391 | 0.518
BEN | 0.642 | 0.809 | 0.599 | 0.751 | 0.251 | 0.231 | 0.292 | 1.07 | 1.01 | 0.972 | 1.05 | 1.1 | 0.898 | 0.979 | 0.353 | 0.332 | 0.29 | 0.264
CAL-12T | 0.639 | 0.737 | 0.602 | 0.594 | 0.597 | 0.611 | 0.526 | 0.654 | 0.737 | 0.764 | 0.33 | 0.284 | 0.356 | 0.436 | 0.335 | 0.439 | 0.347 | 0.575
COR-L23 | – | – | – | – | 0.438 | 0.412 | 0.442 | 0.326 | 0.381 | 0.302 | 0.684 | 0.632 | 0.549 | 0.67 | 0.875 | 0.774 | 0.828 | 0.808
COR-L 105 | – | – | – | – | 0.398 | 0.429 | 0.433 | 0.669 | 0.693 | 0.708 | 0.404 | 0.409 | 0.418 | 0.442 | 0.63 | 0.588 | 0.681 | 0.647
Calu-6 | – | – | – | – | – | – | – | 0.618 | 0.588 | 0.55 | – | – | – | – | – | – | – | –
ChaGo-K-1 | 0.933 | 0.887 | 0.839 | 0.878 | 0.436 | 0.432 | 0.445 | 0.469 | 0.402 | 0.391 | 0.921 | 0.921 | 0.881 | 0.867 | 0.757 | 0.677 | 0.501 | 0.562
EBC-1 | – | – | – | – | – | – | – | 0.609 | 0.654 | 0.551 | – | – | – | – | – | – | – | –
EKVX | 0.7 | 0.777 | 0.644 | 0.804 | 0.251 | 0.265 | 0.246 | 0.969 | 0.811 | 0.853 | 0.337 | 0.474 | 0.461 | 0.345 | 0.93 | 0.936 | 0.863 | 0.923
